# Assay results from US7659277B2, “Ubiquitin ligase inhibitors and methods related thereto” (Proteologies, Ltd., priority 2003, dated 2010).
# Columns and labels:
# POSH = biological target: T1, POSH (Homo sapiens, UniProt Q7Z6J0); test: IC50 assay procedure: GST-POSH auto-ubiquitination, homogeneous time-resolved fluorescence (Ub-cryptate / anti-GST XL665); type: biochemical; details: ubiquitin ligase activity of POSH; GST-POSH 33 nM, 30 min preincubation
# T1 construct: GST-POSH lot NB81/p.118 3.6 mg/ml; fused on or other part: GST tag, used for detection with anti-GST XL665
# T1 sequence (Q7Z6J0 1-269 limits assumed): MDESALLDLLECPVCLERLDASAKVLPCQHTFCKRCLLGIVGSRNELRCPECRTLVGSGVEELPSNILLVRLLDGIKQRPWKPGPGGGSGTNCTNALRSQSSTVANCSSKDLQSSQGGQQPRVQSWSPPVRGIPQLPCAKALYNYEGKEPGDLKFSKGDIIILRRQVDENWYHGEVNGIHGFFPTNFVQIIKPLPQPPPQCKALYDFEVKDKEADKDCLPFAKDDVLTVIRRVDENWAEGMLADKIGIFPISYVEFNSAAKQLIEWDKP
# From the text: In certain preferred embodiments, agents that inhibit (or promote) the ubiquitin ligase activity of a ubiquitin ligase, such as POSH, may be identified using a homogenous time resolved fluorescence assay. Such an assay may employ a GST fused to the RING subunit of a ubiquitin ligase (e.g. POSH). Two flurophore-conjugated detection reagents are also used: anti-GSTXL665 and europium cryptate labeled ubiqutin. The ubiqutination of the ubiquitin ligase by ubiqutin cryptate and binding of the anti-GST tagged XL665 brings the fluorophores into close proximity allowing FRET reaction to occur. Accordingly, FRET serves as a measurement of ubiquitination of the ubiquitin ligase. An enzymatic system may be set up to provide activated ubiquitin, e.g., by providing ubiquitin, an E1 and an E2. Compounds that will not allow the FRET reaction are considered to be inhibitors.
# Step 3: establish IC 50 value measurements.
# Experimental Protocols: 1. HTS Screening Assay Procedure • Microplates 10109D to 10114D compounds at 1 mM. • (Controls in column 1). • All compounds were perchase from ChemBridge corporation: ChemBridge corporation 16981 Via Tazon, Suite G San Diego, Calif. 92127 a. Microplates Labeling • Put labels to 6 PS U-bottom clear microplate. • Put labels to 18 black microplates (triplicats). b. Microplates Preparation • Put 100 μl GST-POSH at 33 nM in wells of the clear PS U-bottom microplates (exept wells A1-D1). • Negative control: place 100 μl dH2O in wells A1-D1. • (Positive control: place 100 μl GST-POSH at 33 nM in wells E1-H1). • Put 8 μl enzymes solution ×4 to black microplates (column 1 to 11). c. Incubation of E3 with Compounds • Transfer 5 μl of compounds (at 1 mM) to the microplates containing 100 μl GST-POSH. • Add 5 μl of DMSO to controls column 1. • Incubation 30 minutes at RT. d. Enzymatic (Ubiquitination) and Final Steps • Distribution of (triplicate) 3×23 μl incubated compounds into 3 black microplates containing enzymatic solution (on splitting apparatus). • Incubation 30 minutes at 37° C. • Addition of 8 μl EDTA 0.5 M. • Incubation 15 (at least) minutes at RT. • Addition of 30 μl GST XL 665 in reconstitution buffer. • Incubation 45 (at least) minutes at RT. • Reading fluorescence. • Record results in computer. • Put sealing foil back on original and diluted microplates and keep at −70° C. • Always the plates must be closed with lids during each step. 2. […] Microplates Labeling • Put labels to 4 clear PP clear microplate (18.2 μM, 9.1 uM, 1.82 uM, 910 nM,). • Put labels to 5 clear PS U-bottom clear microplate 4.44 μM, 909, 444, 91 and 44 nM) • Put labels to 15 black microplates (triplicates). f. Original Microplate Dilutions • Put DMSO 40 μl to (18.2 μM, 1.82 uM plates) and 20 ul to (9.1 uM, 910 nM plates. • Mix by pipetation the original microplate (3× up and down 45 μl). • Transfer 10 μl of compounds from the original microplate (at 91 μM) to the next microplate (=18.2 μM) on splitting apparatus. • Mix by pipetation the 18.2 uM microplate (3× up and down 45 μl). • Transfer 20 μl of compounds from the 18.2 uM microplate to the next microplate (=9.1 μM) on splitting apparatus. • Mix by pipetation the 9.1 uM microplate (3× up and down 45 μl). • Transfer 10 μl of compounds from the 9.1 uM microplate to the next microplate (=1.82 μM) on splitting apparatus. • Mix by pipetation the 1.82 uM microplate (3× up and down 45 μl). • Transfer 20 μl of compounds from the 1.82 uM microplate to the next microplate (=910 nM) on splitting apparatus • Mix by pipetation. g. Microplates Preparation • Put 123 μl GST-POSH at 33 nM in wells of the 5 clear PS U-bottom clear microplates. • Positive control: place 123 μl GST-POSH at 33 nM in well A12-h12 13 μl DMSO. • Negative control: place 123 μl dH2O in well B1 and 13 μl DMSO. • Put 8 μl enzymes solution ×4 to 15 black microplates. • Controls: put 8 μl enzymes solution ×4 to wells A1 to F1. h. […]
# HIV-1 = test: HIV maturation (budding) in virus-like particle assay, HIV-1 p24 antigen ELISA; type: cell-based; details: Human immunodeficiency virus 1, read-out: Budding (3 μM)
# From the text: Compounds were further assessed for effects on maturation of HIV particles in a virus-like particle assay.
# c-cbl = c-cbl (Homo sapiens, UniProt P22681); test: Selectivity (% A in 1 μM), ubiquitin ligase activity of c-cbl; type: biochemical; details: % activity at 1 μM compound; control is related to 100% activity; HTS protocol
# E2 protein = type: biochemical; details: % activity at 1 μM compound; control is related to 100% activity; HTS protocol
Compound,IC50 (POSH) [nM],activity at 3 µM (HIV-1) [%],remaining activity at 1 µM (c-cbl) [%],Selectivity (% A* in 1 μM) E2 (E2 protein) [%]
O=C1S/C(=C/c2ccc(-c3ccc([N+](=O)[O-])cc3Cl)o2)C(=O)N1c1ccccc1 [Compound 27],700,48,–,–
CN(C)c1ccc(/C=C2\SC(=S)N(C3CCS(=O)(=O)C3)C2=O)cc1 (stereo not drawn) [Compound 110],600,36,–,–
O=C1C(=Cc2ccc(-c3ccc(Br)cc3)o2)C(=O)c2ccccc21 [Compound 38],400,38,–,–
C=CCN1C(=O)/C(=C/c2c3ccccc3cc3ccccc23)SC1=S [Compound 109],500,60,–,–
Cc1ccc(/N=C/c2cccc(O)c2O)cc1C [Compound 56],300,59,–,–
O=C(O)c1ccc(-c2ccc(/C=c3\sc4nc5ccccc5n4c3=O)o2)cc1 [Compound 28],700,54,–,–
Cc1c(C(=O)/C=C/c2ccccc2)c2cc(O)ccc2n1C [Compound 75],400,39,–,–
COc1ccc(/C=N/c2ccc(Nc3ccccc3)cc2)c2ccccc12 [Compound 55],500,55,–,–
O=c1nc(-c2ccc(Br)cc2)cc(-c2ccc([N+](=O)[O-])cc2)[nH]1 [Compound 84],300,47,–,–
S=C(c1ccc(-c2cc(Cl)ccc2Cl)o1)N1CCCCC1 [Compound 35],500,56,–,–
O=C1C=CC(=O)N1c1ccc(OC(F)(F)C(F)F)c(N2C(=O)C=CC2=O)c1 [Compound 20],900,60,–,–
CCCCCCOc1ccc(C=C2C(=O)NC(=S)NC2=O)cc1 [Compound 15],500,52,–,–
CN1C(=O)/C(=C\c2ccc(-c3cccc([N+](=O)[O-])c3)o2)SC1=S [Compound 115],600,48,–,–
Cc1c(C(=O)/C=C/c2cccs2)c2cc(O)ccc2n1C [Compound 76],400,48,–,–
Cc1cc([N+](=O)[O-])ccc1/N=C/c1ccc[nH]1 [Compound 70],600,57,–,–
CN(C)c1ccc(/C=C2\C(=O)N(c3ccc([N+](=O)[O-])cc3)N=C2N2CCOCC2)cc1 [Compound 42],5000,51,–,–
Oc1c(Br)cc(Cl)cc1/C=N/c1ccccn1 [Compound 64],900,–,118,117

Compound,IC50 (POSH) [nM],activity at 3 µM (HIV-1) [%],remaining activity at 1 µM (c-cbl) [%],Selectivity (% A* in 1 μM) E2 (E2 protein) [%]
O=C1N=C(c2ccccc2)S/C1=C/c1ccc(-c2cccc([N+](=O)[O-])c2)o1 [Compound 36],1000,–,86,82
CCOC(=O)c1c(/N=C/c2cc(Br)ccc2O)sc2c1CCCC2 [Compound 68],1000,–,91,57
CCCCOc1ccc(NC(=S)N2CCn3c4c(c(=O)c5cc(C)ccc53)CCC42)cc1 (stereo not drawn) [Compound 81],100,63,–,–
O=C1CC(NNc2ccccc2)C(=O)N1c1cccc(Cl)c1 (stereo not drawn) [Compound 22],900,–,64,91
OCc1cccc(/N=C/c2cccc(O)c2O)c1 [Compound 57],300,61,–,–
O=c1/c(=C/c2cccc([N+](=O)[O-])c2O)sc2nc3ccccc3n12 [Compound 51],700,–,104,113
Oc1c(Br)cc(Br)cc1/C=N/c1cccc2nsnc12 [Compound 112],700,–,117,84
O=c1oc2cc(O)ccc2cc1-c1csc(-c2ccc(Cl)cc2)n1 [Compound 40],1000,–,95,117
N/N=C\c1ccc(-c2cccs2)s1 [Compound 37],1000,–,93,97
Oc1c(Cl)cc(Cl)cc1/C=N/c1ccc(-c2nc3ccccc3[nH]2)cc1 [Compound 63],600,–,95,109
CC(=C\c1ccccc1)/C=C1/SC(=N)NC1=O [Compound 31],900,–,108,104
CC(C)Oc1ccc(/C=C2/SC(=S)NC2=O)cc1 [Compound 26],3000,–,85,61
Oc1c(Br)cc(Br)cc1/C=N/c1nc2ccccc2s1 [Compound 62],700,–,134,94
O=C1/C(=C\c2cccc([N+](=O)[O-])c2)Sc2ccccc21 [Compound 52],1300,–,124,63
Cc1ccc2nc(-c3ccc(/N=C/c4ccc([N+](=O)[O-])s4)cc3)sc2c1 [Compound 72],800,–,95,77
O=C1/C(=C\c2ccc(Cl)c([N+](=O)[O-])c2)Sc2ccccc21 [Compound 50],100,–,155,103
